Laboratory results as given in ChEMBL document CHEMBL3813602, “Disseminins and Spiciferone Analogues: Polyketide-Derived Metabolites from a Fungicolous Isolate of Pestalotiopsis disseminata” (J Nat Prod, 2016).
The source made the active and inactive calls.

Columns and labels:
Assay type in all cases: functional, organism-based
Bacillus subtilis [1] = test: Antimicrobial activity against Bacillus subtilis at 100 ug/disk after 24 hrs by disk diffusion method
Staphylococcus aureus [2] = test: Antimicrobial activity against Staphylococcus aureus at 100 ug/disk after 24 hrs by disk diffusion method
Fusarium verticillioides = test: Antimicrobial activity against Fusarium verticillioides at 100 ug/disk after 48 hrs by disk diffusion method
Escherichia coli [3] = test: Antimicrobial activity against Escherichia coli at 100 ug/disk after 24 hrs by disk diffusion method
Candida albicans [4] = test: Antimicrobial activity against Candida albicans at 100 ug/disk after 48 hrs by disk diffusion method
Aspergillus flavus = test: Antimicrobial activity against Aspergillus flavus at 100 ug/disk after 48 hrs by disk diffusion method
Escherichia coli [5] = test: Antimicrobial activity against Escherichia coli at 50 ug/disk after 24 hrs by disk diffusion method
Bacillus subtilis [6] = test: Antimicrobial activity against Bacillus subtilis at 50 ug/disk after 24 hrs by disk diffusion method
Staphylococcus aureus [7] = test: Antimicrobial activity against Staphylococcus aureus at 50 ug/disk after 24 hrs by disk diffusion method
Candida albicans [8] = test: Antimicrobial activity against Candida albicans at 50 ug/disk after 48 hrs by disk diffusion method

Measured: Activity

CC[C@H](C)C(=O)[C@H]1[C@H](CO)[C@H](C)[C@H](C)O[C@@H]1O
inactive: Bacillus subtilis [1] | Staphylococcus aureus [2] | Fusarium verticillioides | Escherichia coli [3] | Candida albicans [4] | Aspergillus flavus

C[C@H](C(=O)[C@H]1CO[C@@]2(C)OC[C@@H]1[C@@H]2C)[C@@H](C)O
inactive: Bacillus subtilis [1] | Staphylococcus aureus [2] | Fusarium verticillioides | Escherichia coli [3] | Candida albicans [4] | Aspergillus flavus

CC[C@@](C)(C(=O)CCO)C1=CC(=O)[C@@H](C)[C@H](C)O1
inactive: Escherichia coli [5] | Bacillus subtilis [6] | Staphylococcus aureus [7] | Candida albicans [8]

CC[C@@](C)(C(=O)CCO)C1=CC(=O)[C@H](C)[C@H](C)O1
inactive: Escherichia coli [5] | Bacillus subtilis [6] | Staphylococcus aureus [7] | Candida albicans [8]

C[C@H]1[C@H]2[C@H](OC[C@@H]2C(=O)[C@@H](C)[C@@H](C)O)O[C@H]1C
inactive: Bacillus subtilis [1] | Staphylococcus aureus [2] | Fusarium verticillioides | Escherichia coli [3] | Candida albicans [4] | Aspergillus flavus

CCC(C)C(=O)[C@@H]1CO[C@@H](C)[C@@H](C)[C@H]1CO (mixture of isomers)
inactive: Bacillus subtilis [1] | Staphylococcus aureus [2] | Fusarium verticillioides | Escherichia coli [3] | Candida albicans [4] | Aspergillus flavus
